The values below are quoted from earlier work in patent US20100322892A1, “PESTICIDE COMPOSITIONS AND APPLICATORS” (BASF CORPORATION, priority 2009, published 2010).

The subject of data set [1] is ants. The conditions noted are these: in vivo.
In data set [2] the test system is termites. The following applies: in vivo.

With `N#Cc1nn(-c2c(Cl)cc(C(F)(F)F)cc2Cl)c(N)c1[S+]([O-])C(F)(F)F` (racemic) [fipronil, (±)-5-amino-1-(2,6-dichloro-α,α,α-trifluoro-p-tolyl)-4-trifluoromethylsulfinylpyrazole-3-carbonitrile], the “Dose toxic to ants” value in data set [1] was “about 1 nanogram per ant”. Moreover, the “Dose toxic to termites” value in data set [2] is 2 nanograms per termite.
